{"source": "patent US8240312B2", "about": "“Method and means for exerting a phototoxic effect of visible light on microorganisms” (Osnat Feuerstein, priority 2004, dated 2012)", "key": {"[1]": {"system": "P. gingivalis", "test": "Bacterial survival after 20 sec blue light exposure in the presence of scavengers", "type": "cell-based, Porphyromonas gingivalis", "conditions": "P. gingivalis in PBS suspension, halogen lamp, 23 J/cm^2, scavengers 30 to 100 μM, relative to non-exposed control (FIG. 5C)", "experimental": "(§1) Bacteria: P. gingivalis, F. nucleatum, S. mutans, S. faecalis, P. gingivalis and F. nucleatum were grown and incubated at 37° C. in an anaerobic jar at <1% O2 and 9-13% CO2. S. mutans and S. faecalis were grown and incubated under aerobic conditions at 37° C. All the strains were sub-cultured twice before exposure to light. The bacterial concentration following 24 h incubation was standardized by dilution with sterile broth to about 5×10^6 cfu.\n(§2) Determination of bacterial survival: Following exposure of the bacteria in suspension to light, samples were diluted and applied to the agar plates. Survival of these bacteria were determined, as well as of the duplicates of single bacteria on agar, by counting cfu following incubation. P. gingivalis and F. nucleatum were cultured under anaerobic conditions and S. mutans and S. faecalis under aerobic conditions at 37° C. until bacterial colonies were visible (1-5 days). The percentage of surviving bacteria was calculated in relation to the control non-exposed samples under similar experimental conditions. Biofilm inhibition in the triplicates bacterial lawn samples was defined as a halo without colony growth appearing in the light-exposed areas. All experiments in which the results of the exposed samples differed from those of the control were repeated at least twice. […]"}, "[2]": {"system": "F. nucleatum", "test": "Bacterial survival after 20 sec blue light exposure in the presence of scavengers", "type": "cell-based, Fusobacterium nucleatum", "conditions": "F. nucleatum in PBS suspension, halogen lamp, 23 J/cm^2, scavengers 30 to 100 μM, relative to non-exposed control (FIG. 5D)", "experimental": "as §1, §2"}}, "data": [{"smiles": "CNC(=S)NC", "note": "[DMTU, dimethylthiourea]", "values": [{"measurement": "percent survival of bacteria", "setting": "[1]", "result": 48, "unit": "%"}, {"measurement": "percent survival of bacteria", "setting": "[2]", "result": 63, "unit": "%"}]}]}
